Reference: PubChem BioAssay (NCI)
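48-hour exposure; five concentrations; linearly interpolated endpoints. Abbreviation: GI50, concentration required for 50% inhibition of growth. TGI is the concentration that stops growth completely.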

How the values were obtained:
Assay in all cases: NCI tumour cell line growth inhibition, 48 h
CAKI-1 renal = system: CAKI-1 renal
CCRF-CEM leukemia = system: CCRF-CEM leukemia
HCC-2998 colon = system: HCC-2998 colon
HCT-116 colon = system: HCT-116 colon
HCT-15 colon = system: HCT-15 colon
OVCAR-3 ovarian = system: OVCAR-3 ovarian
OVCAR-4 ovarian = system: OVCAR-4 ovarian
SF-295 CNS = system: SF-295 CNS
SK-MEL-28 melanoma = system: SK-MEL-28 melanoma
UACC-257 melanoma = system: UACC-257 melanoma

Row | SMILES | GI50 (CAKI-1 renal) | TGI (CAKI-1 renal) | GI50 (CCRF-CEM leukemia) | GI50 (HCC-2998 colon) | TGI (HCC-2998 colon) | GI50 (HCT-116 colon) | GI50 (HCT-15 colon) | TGI (HCT-15 colon) | GI50 (OVCAR-3 ovarian) | TGI (OVCAR-3 ovarian) | GI50 (OVCAR-4 ovarian) | TGI (OVCAR-4 ovarian) | GI50 (SF-295 CNS) | TGI (SF-295 CNS) | GI50 (SK-MEL-28 melanoma) | TGI (SK-MEL-28 melanoma) | GI50 (UACC-257 melanoma) | TGI (UACC-257 melanoma) | TGI (CCRF-CEM leukemia) | TGI (HCT-116 colon)
1 | COc1cc(CCN)c2c(c1OC)SSSSS2 | 0.503 µM | 1.11 µM | 0.395 µM | 0.384 µM | 2.08 µM | 0.22 µM | 0.319 µM | 1.44 µM | 0.204 µM | 0.538 µM | 1.05 µM | 2.51 µM | 1.79 µM | 3.99 µM | 1.79 µM | 3.43 µM | 2.58 µM | 6.8 µM |  | 
2 | CCCCC1CC(c2cccc([N+](=O)[O-])c2)=NO1 (stereo not given) |  | > 100 µM |  |  | > 100 µM |  |  | > 100 µM |  | > 100 µM |  | > 100 µM |  | > 100 µM |  | > 100 µM |  | > 100 µM | > 100 µM | > 100 µM
3 | CCC(=O)O[C@H]1CC[C@H]2[C@@H]3CC[C@H]4CC(=O)[C@H](C)C[C@]4(C)[C@H]3CC[C@]12C | > 41.7 µM | > 100 µM | 18.8 µM | 49.7 µM | > 100 µM | 4.49 µM | 37.7 µM | > 100 µM | 31.2 µM | > 84.1 µM | > 79.1 µM | > 100 µM | 20.9 µM | > 78 µM | > 88.7 µM | > 100 µM | 20.8 µM | 92.7 µM | > 100 µM | > 42.6 µM
4 | O=[N+]([O-])c1ccc(S(=O)Cc2ccccc2)c([N+](=O)[O-])c1 (stereo not given) | 1.85 µM | 3.85 µM | 0.739 µM | 16.6 µM | 30.2 µM | 1.29 µM | 1.85 µM | 3.88 µM | 1.84 µM | 3.24 µM | 1.5 µM | 2.93 µM | 13.2 µM | 26.9 µM | 1.89 µM | 4.13 µM | 1.76 µM | 3.96 µM | 3 µM | 2.55 µM
5 | Oc1ccc(C(c2ccc(O)cc2)c2ccc(Cl)cn2)cc1 | 22.1 µM | > 100 µM | 14.9 µM | 0.279 µM | 9.36 µM | 0.473 µM | 0.337 µM | 56.1 µM | 0.0266 µM | 0.0769 µM | 0.0243 µM | 0.0598 µM | 0.403 µM | 7.21 µM | 28 µM | > 100 µM | 23.1 µM | > 100 µM | > 100 µM | > 100 µM
6 | O=c1[nH]c(=O)n([C@@H]2C[C@H](CO)[C@H](O)C2)cc1/C=C/Br |  | > 100 µM |  |  | > 100 µM |  |  | > 100 µM |  | > 100 µM |  | > 100 µM |  | > 100 µM |  | > 100 µM |  | > 100 µM | > 100 µM | > 100 µM
7 | COc1ccc(C2SCC(=O)N2NC(=O)C(O)c2ccccc2)cc1OC (stereo not given) | > 100 µM | > 100 µM | > 100 µM | > 100 µM | > 100 µM | > 100 µM | > 100 µM | > 100 µM | > 100 µM | > 100 µM | > 100 µM | > 100 µM | > 100 µM | > 100 µM | > 100 µM | > 100 µM | > 100 µM | > 100 µM | > 100 µM | > 100 µM
8 | COC(=O)C1C(O)CC(c2ccccn2)N(Cc2ccccc2)C1c1ccccn1 (stereo not given) |  | > 100 µM |  |  | > 100 µM |  |  | > 100 µM |  | > 100 µM |  | > 100 µM |  | > 100 µM |  | > 100 µM |  | > 100 µM | > 100 µM | > 100 µM
9 | COc1ccc(-c2oc3c(OC)c(OC)c(OC)c(O)c3c(=O)c2OC)cc1OC |  | > 100 µM |  |  | > 67 µM |  |  | > 100 µM |  | > 93.6 µM |  | > 100 µM |  | > 76.5 µM |  | > 100 µM |  | > 100 µM | > 71.3 µM | > 100 µM
10 | C=CCN(/C=C1/C(=O)O[C@H](COC)[C@@]2(C)C1=C(O)C(=O)C1=C2[C@H](OC(C)=O)C[C@]2(C)C(=O)CC[C@@H]12)CC=C | 0.357 µM | > 10 µM | 0.709 µM | 0.385 µM | > 7.08 µM | 1.17 µM | 1.19 µM | > 10 µM | 0.562 µM | > 10 µM | 2.72 µM | > 10 µM | 0.573 µM | > 10 µM | 1.1 µM | > 10 µM | 0.72 µM | > 9.25 µM | > 6.51 µM | > 10 µM
11 | OCCCOC(c1ccccc1)(c1ccccc1)c1ccccc1 |  | > 100 µM |  |  | > 100 µM |  |  | > 100 µM |  | > 100 µM |  | > 100 µM |  | > 100 µM |  | > 100 µM |  | > 100 µM | > 100 µM | > 100 µM
12 | C=C1SC(=Nc2c(C)cc(C)cc2C)N(C(=O)c2sc3ccccc3c2Cl)C12CCCCC2 | 10.7 µM | > 100 µM | 62.4 µM | 44.7 µM | > 100 µM | > 100 µM | > 100 µM | > 100 µM | 88.7 µM | > 100 µM | > 100 µM | > 100 µM | 42.3 µM | > 100 µM | > 100 µM | > 100 µM | > 100 µM | > 100 µM | > 100 µM | > 100 µM
13 | CC1(C)CC[C@H](Nc2ncc(C(F)(F)F)c(-c3c[nH]c4c(P(C)(C)=O)c(C#N)ccc34)n2)CN1 | 0.0361 µM | > 37.6 µM | 0.143 µM | 0.0375 µM | 11.6 µM | < 0.01 µM | 0.21 µM | 15.1 µM | < 0.0214 µM | 4.29 µM | 0.365 µM | 6.89 µM | 0.0267 µM | 13.5 µM | < 0.01 µM | 9.2 µM | < 0.01 µM | 6.83 µM | > 32 µM | 12.1 µM
14 | O=C1c2ccc([N+](=O)[O-])cc2-c2c1c1ccccc1c(=O)n2CCCNCCCNCCCn1c2c(c3ccc([N+](=O)[O-])cc3c1=O)C(=O)c1ccccc1-2 | 3.33 µM | 20.8 µM | 1.77 µM | 3.08 µM | 9.77 µM | 0.933 µM | 3.4 µM | 14.3 µM | 2.2 µM | 6.16 µM | 1.06 µM | 2.88 µM | 2.23 µM | 20.7 µM | 3.83 µM | 15.9 µM | 18 µM | 59.6 µM | 5.62 µM | 2.91 µM
15 | CS(=O)(=O)OCCN1CCN(C(=O)c2cccc3c(Nc4ccc(S(=O)(=O)N=C(N)N)cc4)c4ccccc4nc23)CC1 |  | > 100 µM |  |  | > 100 µM |  |  | > 100 µM |  | > 100 µM |  | > 100 µM |  | > 100 µM |  | > 100 µM |  | > 100 µM | > 100 µM | > 100 µM
16 | NC1CCCCC1.[O]=[Ge].[O]=[Ge].[O]=[Ge][OH].[O]=[Ge][OH] | > 100 µM | > 100 µM |  |  | > 100 µM |  |  | > 100 µM |  | > 100 µM |  | > 100 µM | > 100 µM | > 100 µM |  | > 100 µM |  | > 100 µM | > 100 µM | > 100 µM
17 | Cc1c(S(C)(=O)=O)c(-c2cc(F)cc(N3CCN(c4ccc(NS(=O)(=O)c5ccc(N[C@H](CCN6CCC(C(=O)OCCCP(=O)(O)O)CC6)CSc6ccccc6)c(S(=O)(=O)C(F)(F)F)c5)cc4)CC3)c2)c(-c2ccc(Cl)cc2)n1C(C)C | > 100 µM | > 100 µM | 0.456 µM | 2.13 µM | > 100 µM | > 100 µM | > 100 µM | > 100 µM | > 100 µM | > 100 µM | > 100 µM | > 100 µM | > 100 µM | > 100 µM | > 100 µM | > 100 µM | > 100 µM | > 100 µM | > 100 µM | > 100 µM
18 | COc1ccc(NC(=O)C(=O)Cc2nc3ccc([N+](=O)[O-])cc3[nH]c2=O)c(OC)c1 |  | > 100 µM |  |  | > 100 µM |  |  | > 100 µM |  | > 100 µM |  | > 100 µM |  | > 100 µM |  | > 100 µM |  | > 100 µM | > 100 µM | > 100 µM
19 | CC(=O)NNc1nc(C)c(C(=O)NNC(=O)C(=O)Nc2c(C)cccc2C)s1 |  | > 100 µM |  |  | > 100 µM |  |  | > 100 µM |  | 65.3 µM |  | > 100 µM |  | > 100 µM |  | > 100 µM |  | > 100 µM | 81.7 µM | > 100 µM
